Reference: patent US10214519B2, “Phosphatidylinositol 3-kinase inhibitors” (Gilead Sciences, Inc., priority 2016, dated 2019)
pIC50: −log10 of the molar value.

These compounds were tested against PI3Kβ (Homo sapiens (Human), UniProt P42338) (assay: PI3K isoform TR-FRET enzymatic assay (PI3Kβ)). Conditions: 2× Km ATP, 30 minutes at 25° C.
Assay type: biochemical
Procedure: The compounds of formula (I) were characterized for their enzymatic activity against the PI3K isoforms. The activities were measured using a time-resolved fluorescence resonance energy transfer (TR-FRET) assay. TR-FRET monitored the formation of 3,4,5-inositol triphosphate molecule that competed with fluorescently labeled PIP3 for binding to the GRP-1 pleckstrin homology domain protein.
Class I PI3K isoforms were expressed and purified as heterodimeric recombinant proteins. All assay reagents and buffers for the TR-FRET assay were purchased from Millipore. […] The compounds were added to the assay solution and incubated for 30 minutes at 25° C. The reactions were terminated with a final concentration of 10 mM EDTA, 10 nM labeled-PIP3, and 35 nM Europium labeled GRP-1 detector protein before reading TR-FRET on an Envision plate reader (Ex: 340 nm; Em: 615/665 nm; 100 μs delay and 500 μs read window).
The results were normalized based on positive (1 μM wortmanin) and negative (DMSO) controls, and the IC50 values for PI3K α, β, δ, and γ were calculated from the fit of the dose-response curves to a four-parameter equation.

Sequence of PI3Kβ (P42338 whole entry, canonical isoform): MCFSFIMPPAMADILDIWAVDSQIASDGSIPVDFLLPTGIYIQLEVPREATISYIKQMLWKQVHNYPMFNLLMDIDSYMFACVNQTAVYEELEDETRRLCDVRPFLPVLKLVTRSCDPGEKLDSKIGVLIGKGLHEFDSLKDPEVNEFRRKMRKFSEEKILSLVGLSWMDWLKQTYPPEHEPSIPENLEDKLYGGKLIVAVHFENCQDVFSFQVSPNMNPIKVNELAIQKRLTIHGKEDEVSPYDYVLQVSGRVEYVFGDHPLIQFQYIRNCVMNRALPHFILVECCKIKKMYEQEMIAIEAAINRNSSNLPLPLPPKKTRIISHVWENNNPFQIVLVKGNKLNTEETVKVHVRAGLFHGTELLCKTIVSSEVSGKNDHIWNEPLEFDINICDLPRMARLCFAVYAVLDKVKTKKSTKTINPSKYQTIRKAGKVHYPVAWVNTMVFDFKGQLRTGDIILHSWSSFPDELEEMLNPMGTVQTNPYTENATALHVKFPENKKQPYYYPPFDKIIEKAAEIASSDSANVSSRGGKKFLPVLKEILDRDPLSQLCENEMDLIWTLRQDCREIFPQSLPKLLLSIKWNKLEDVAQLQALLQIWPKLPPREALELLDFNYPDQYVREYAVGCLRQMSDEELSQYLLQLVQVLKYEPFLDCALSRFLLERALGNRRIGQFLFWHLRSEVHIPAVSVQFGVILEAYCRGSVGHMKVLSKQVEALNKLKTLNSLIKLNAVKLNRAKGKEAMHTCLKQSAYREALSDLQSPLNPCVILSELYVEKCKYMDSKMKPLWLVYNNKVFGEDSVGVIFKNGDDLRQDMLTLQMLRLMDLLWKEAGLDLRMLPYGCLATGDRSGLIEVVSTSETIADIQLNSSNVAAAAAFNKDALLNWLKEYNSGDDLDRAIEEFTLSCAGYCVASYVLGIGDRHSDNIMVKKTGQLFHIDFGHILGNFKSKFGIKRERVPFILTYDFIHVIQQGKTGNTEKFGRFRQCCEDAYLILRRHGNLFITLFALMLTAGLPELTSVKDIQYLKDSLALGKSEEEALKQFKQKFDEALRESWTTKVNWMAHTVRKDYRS
Sequence of PI3Kβ (P27986 whole entry partner, canonical isoform): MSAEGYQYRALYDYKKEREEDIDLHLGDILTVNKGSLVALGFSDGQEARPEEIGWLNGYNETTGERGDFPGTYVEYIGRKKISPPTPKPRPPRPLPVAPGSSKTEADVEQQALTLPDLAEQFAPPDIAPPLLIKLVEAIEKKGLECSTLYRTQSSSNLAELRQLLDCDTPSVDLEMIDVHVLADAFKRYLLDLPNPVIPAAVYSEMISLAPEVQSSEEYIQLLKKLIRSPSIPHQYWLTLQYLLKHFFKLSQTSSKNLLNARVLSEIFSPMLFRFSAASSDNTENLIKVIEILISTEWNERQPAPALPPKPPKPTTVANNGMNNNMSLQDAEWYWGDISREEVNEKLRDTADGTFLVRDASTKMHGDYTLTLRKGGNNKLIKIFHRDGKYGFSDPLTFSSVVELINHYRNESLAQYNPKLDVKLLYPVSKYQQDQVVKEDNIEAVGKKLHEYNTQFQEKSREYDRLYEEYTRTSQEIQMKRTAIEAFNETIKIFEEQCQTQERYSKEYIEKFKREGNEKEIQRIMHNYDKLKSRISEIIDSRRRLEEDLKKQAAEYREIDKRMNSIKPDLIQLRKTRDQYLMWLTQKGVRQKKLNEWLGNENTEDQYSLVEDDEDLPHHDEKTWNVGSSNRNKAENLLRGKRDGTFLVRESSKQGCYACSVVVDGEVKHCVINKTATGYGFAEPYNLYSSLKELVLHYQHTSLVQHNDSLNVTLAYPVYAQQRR

Structure (SMILES)	pIC50
Cc1nc2c(-c3ccccc3)cc(N3CCOCC3)cc2n1-c1ccnc2c(-c3ccccc3)cccc12 [Example 312, 4-(2-methyl-4-phenyl-1-(8-phenylquinolin-4-yl)-1H-benzo[d]imidazol-6-yl)morpholine]	6.01
CCCc1nc2c(-c3nnc(C)[nH]3)cc(N3CCOCC3)cc2n1-c1ccnc2c(Cl)cccc12 [Example 46, 4-(1-(8-chloroquinolin-4-yl)-4-(5-methyl-4H-1,2,4-triazol-3-yl)-2-propyl-1H-benzo[d]imidazol-6-yl)morpholine]	7.72
CCc1nc2c(-c3nnc[nH]3)cc(N3CCOCC3)cc2n1-c1c(C)cnc2c(C#N)cccc12 (atropisomer, axis not shown) [Compound 364, 4-(2-ethyl-6-morpholino-4-(4H-1,2,4-triazol-3-yl)-1H-benzo[d]imidazol-1-yl)-3-methylquinoline-8-carbonitrile]	7.60
Cc1cccc2nccc(-n3c(C)nc4c(-c5nnc[nH]5)cc(N5CCOCC5)cc43)c12 (atropisomer, axis not shown) [Compound 362, 4-[2-methyl-3-(5-methylquinolin-4-yl)-7-(4H-1,2,4-triazol-3-yl)benzimidazol-5-yl]morpholine]	7.55
Fc1c(N2CCOCC2)cc(-c2nnc[nH]2)c2ncn(-c3ccnc4c(Cl)cccc34)c12 [Example 149, 4-(1-(8-chloroquinolin-4-yl)-7-fluoro-4-(4H-1,2,4-triazol-3-yl)-1H-benzo[d]imidazol-6-yl)morpholine]	7.00
Cc1nc2c(-c3ccc[nH]3)cc(N3CCOCC3)cc2n1-c1ccnc2c(Cl)cccc12 [Example 261, 4-[3-(8-chloroquinolin-4-yl)-2-methyl-7-(1H-pyrrol-2-yl)benzimidazol-5-yl]morpholine]	7.62
Cc1nc2c(-c3cncs3)cc(N3CCOCC3)cc2n1-c1ccnc2c(Cl)cccc12 [Example 276, 4-[3-(8-chloroquinolin-4-yl)-2-methyl-7-(1,3-thiazol-5-yl)benzimidazol-5-yl]morpholine]	6.38
Cc1nc2c(-c3nnc(N)o3)cc(N3CCOCC3)cc2n1-c1ccnc2cc(F)ccc12 [Example 163, 5-(1-(7-fluoroquinolin-4-yl)-2-methyl-6-morpholino-1H-benzo[d]imidazol-4-yl)-1,3,4-oxadiazol-2-amine]	6.20
Cc1nnc(-c2cc(N3CCOCC3)cc3c2nc(C2CCC2)n3-c2ccnc3c(Cl)cccc23)[nH]1 [Example 13, 4-(1-(8-chloroquinolin-4-yl)-2-cyclobutyl-4-(5-methyl-4H-1,2,4-triazol-3-yl)-1H-benzo[d]imidazol-6-yl)morpholine]	7.35
Cc1n[nH]c(-c2cc(N3CCOCC3)cc3c2nc(C)n3-c2c(C)cnc3ccccc23)n1 [Example 74, 4-[2-methyl-3-(3-methylquinolin-4-yl)-7-(3-methyl-1H-1,2,4-triazol-5-yl)benzimidazol-5-yl]morpholine]	7.21
CCc1nc2c(-c3nnc(C)[nH]3)cc(N3CCOCC3)cc2n1-c1c(Cl)cnc2c(Cl)cccc12 (atropisomer, axis not shown) [Compound 349, 4-[3-(3,8-dichloroquinolin-4-yl)-2-ethyl-7-(5-methyl-4H-1,2,4-triazol-3-yl)benzimidazol-5-yl]morpholine]	6.36
Cc1nc2c(-c3nnc(C(F)(F)F)[nH]3)cc(N3CCOCC3)cc2n1-c1ccnc2c(Cl)cccc12 [Example 136, 4-[3-(8-chloroquinolin-4-yl)-2-methyl-7-[5-(trifluoromethyl)-4H-1,2,4-triazol-3-yl]benzimidazol-5-yl]morpholine]	7.32
CCc1nc2c(-c3nnc(Cl)[nH]3)cc(N3CCOCC3)cc2n1-c1ccnc2c(Cl)c(F)ccc12 [Example 172, 4-(4-(5-chloro-4H-1,2,4-triazol-3-yl)-1-(8-chloro-7-fluoroquinolin-4-yl)-2-ethyl-1H-benzo[d]imidazol-6-yl)morpholine]	7.00
Cc1nnc(-c2cc(N3CCOCC3)cc3c2nc(C)n3-c2ccnc3c(Cl)ccc(F)c23)[nH]1 [Example 94, 4-[3-(8-chloro-5-fluoroquinolin-4-yl)-2-methyl-7-(5-methyl-4H-1,2,4-triazol-3-yl)benzimidazol-5-yl]morpholine]	7.59
CCCc1nc2c(-c3nnc[nH]3)cc(N3CCOCC3)cc2n1-c1ccnc2c(F)cccc12 (atropisomer, axis not shown) [Compound 355, 4-[3-(8-fluoroquinolin-4-yl)-2-propyl-7-(4H-1,2,4-triazol-3-yl)benzimidazol-5-yl]morpholine]	5.60
CCCc1nc2c(-c3nnc[nH]3)cc(N3CCOCC3)cc2n1-c1ccnc2c(F)ccc(F)c12 [Example 45, 4-(1-(5,8-difluoroquinolin-4-yl)-2-propyl-4-(4H-1,2,4-triazol-3-yl)-1H-benzo[d]imidazol-6-yl)morpholine]	7.72
Cc1nc2c(-c3ccnnc3)cc(N3CCOCC3)cc2n1-c1ccnc2c(Cl)cccc12 [Example 314, 4-(1-(8-chloroquinolin-4-yl)-2-methyl-4-(pyridazin-4-yl)-1H-benzo[d]imidazol-6-yl)morpholine]	5.11

Compounds with a higher pIC50, results first:

pIC50	Structure (SMILES)
8.40	Clc1ncc(-c2cc(N3CCOCC3)cc3c2ncn3-c2ccnc3c(Cl)cccc23)[nH]1 [Example 285, 4-[7-(2-chloro-1H-imidazol-5-yl)-3-(8-chloroquinolin-4-yl)benzimidazol-5-yl]morpholine]
8.70	Cc1nc2c(-c3nccs3)cc(N3CCOCC3)cc2n1-c1ccnc2c(Cl)ccc(F)c12 [Example 240, 4-[3-(8-chloro-5-fluoroquinolin-4-yl)-2-methyl-7-(1,3-thiazol-2-yl)benzimidazol-5-yl]morpholine]
8.05	Cc1cc(-n2c(C)nc3c(-c4cnc[nH]4)cc(N4CCOCC4)cc32)c2c(Cl)ccc(Cl)c2n1 [Example 333, 4-[3-(5,8-dichloro-2-methylquinolin-4-yl)-7-(1H-imidazol-5-yl)-2-methylbenzimidazol-5-yl]morpholine]
7.82	CCCc1nc2c(-c3cnc(Cl)[nH]3)cc(N3CCOCC3)cc2n1-c1ccnc2c(Cl)cccc12 [Example 281, 4-[7-(2-chloro-1H-imidazol-5-yl)-3-(8-chloroquinolin-4-yl)-2-propylbenzimidazol-5-yl]morpholine]
8.05	Cc1nc2c(-c3nnc[nH]3)cc(N3CCOCC3)cc2n1-c1c(-c2nnc[nH]2)cnc2ccccc12 [Example 392, 4-(1-(3-(4H-1,2,4-triazol-3-yl)quinolin-4-yl)-2-methyl-4-(4H-1,2,4-triazol-3-yl)-1H-benzo[d]imidazol-6-yl)morpholine]
8.05	Clc1cccc2c(-n3c(CC4CC4)nc4c(-c5nnc[nH]5)cc(N5CCOCC5)cc43)ccnc12 [Example 32, 4-(1-(8-chloroquinolin-4-yl)-2-(cyclopropylmethyl)-4-(4H-1,2,4-triazol-3-yl)-1H-benzo[d]imidazol-6-yl)morpholine]
8.00	CCCc1nc2c(-c3nnc[nH]3)cc(N3CCOCC3)cc2n1-c1ccnc2c(F)cccc12 [Example 141, 4-[3-(8-fluoroquinolin-4-yl)-2-propyl-7-(4H-1,2,4-triazol-3-yl)benzimidazol-5-yl]morpholine]
8.15	CCCc1nc2c(-c3ncco3)cc(N3CCOCC3)cc2n1-c1ccnc2c(F)ccc(F)c12 [Example 230, 4-(1-(5,8-difluoroquinolin-4-yl)-4-(oxazol-2-yl)-2-propyl-1H-benzo[d]imidazol-6-yl)morpholine]
